≈ marks a conversion by molar mass, not a printed value. Where “and” joins values, the source holds several entries; their conditions need not be identical. Identical values can stand only once.
The compounds below were run against EGFR (UniProt P00533).
Chain of EGFR (P00533 whole entry, looked up): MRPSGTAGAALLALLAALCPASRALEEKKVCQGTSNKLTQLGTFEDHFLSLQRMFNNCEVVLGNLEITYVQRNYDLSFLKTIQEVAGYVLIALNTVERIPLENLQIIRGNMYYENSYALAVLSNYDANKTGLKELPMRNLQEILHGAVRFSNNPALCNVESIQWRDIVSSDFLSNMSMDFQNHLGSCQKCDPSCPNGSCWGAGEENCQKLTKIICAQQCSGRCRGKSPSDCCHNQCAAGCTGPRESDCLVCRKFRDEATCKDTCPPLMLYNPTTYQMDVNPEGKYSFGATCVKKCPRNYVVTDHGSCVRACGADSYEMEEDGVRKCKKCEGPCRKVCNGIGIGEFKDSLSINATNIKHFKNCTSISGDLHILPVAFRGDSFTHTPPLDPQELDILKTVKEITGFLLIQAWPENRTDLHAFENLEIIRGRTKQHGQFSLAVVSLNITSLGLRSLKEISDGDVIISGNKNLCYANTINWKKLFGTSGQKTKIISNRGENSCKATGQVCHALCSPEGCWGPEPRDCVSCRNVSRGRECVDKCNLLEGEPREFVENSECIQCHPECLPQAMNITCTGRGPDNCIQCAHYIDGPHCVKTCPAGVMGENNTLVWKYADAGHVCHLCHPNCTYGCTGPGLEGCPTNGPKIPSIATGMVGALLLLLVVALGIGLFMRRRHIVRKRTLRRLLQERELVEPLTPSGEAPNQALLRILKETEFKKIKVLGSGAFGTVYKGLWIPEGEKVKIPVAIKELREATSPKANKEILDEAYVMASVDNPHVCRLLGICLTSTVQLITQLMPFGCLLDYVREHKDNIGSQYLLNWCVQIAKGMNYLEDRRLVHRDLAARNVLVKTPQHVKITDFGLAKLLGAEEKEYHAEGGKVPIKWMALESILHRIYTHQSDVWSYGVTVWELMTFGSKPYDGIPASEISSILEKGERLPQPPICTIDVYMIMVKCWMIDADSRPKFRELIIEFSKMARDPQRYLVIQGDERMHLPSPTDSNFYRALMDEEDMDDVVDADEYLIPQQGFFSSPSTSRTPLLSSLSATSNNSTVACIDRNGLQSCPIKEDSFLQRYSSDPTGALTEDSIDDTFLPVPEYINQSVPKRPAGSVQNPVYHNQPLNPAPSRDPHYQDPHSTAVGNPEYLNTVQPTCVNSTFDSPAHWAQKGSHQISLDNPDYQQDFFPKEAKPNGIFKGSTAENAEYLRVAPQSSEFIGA

Compound | IC50
COc1ccc2c(c1)c(CCN(C)C)cn2-c1ncnc(Nc2cc(OC)c(OC)c(OC)c2)n1 | > 4.5 µg/mL
COc1cc(Nc2ncnc(-n3c(=O)sc4ccccc43)n2)cc(OC)c1OC | > 4.5 µg/mL
COC(=O)c1ccc(-c2cc(Nc3ncnc(Nc4cc(Cl)cc(Cl)c4)n3)[nH]n2)cc1 | > 4.5 µg/mL
COc1cc(Nc2ncnc(-c3c(O)n(C)c4ccccc34)n2)cc(OC)c1OC | > 4.5 µg/mL
COc1ccc(Nc2ncnc(N(C)c3ccc(S(=O)(=O)O)cc3)n2)cc1OC | > 4.5 µg/mL
COc1cc(Nc2ncnc(-n3c(N)nc4cc([N+](=O)[O-])ccc43)n2)cc(OC)c1OC.COc1cc(Nc2ncnc(-n3c(N)nc4ccc([N+](=O)[O-])cc43)n2)cc(OC)c1OC | > 4.5 µg/mL
COc1cc(Nc2ncnc(Nc3ccccc3F)n2)cc(OC)c1OC | < 0.4 µg/mL
COc1ccc(Nc2ncnc(N(C)c3ccc(Cl)c(Cl)c3)n2)cc1OC | < 0.4 µg/mL
COc1cc(Nc2ncnc(N3CCN(c4ncccn4)CC3)n2)cc(OC)c1OC | > 4.5 µg/mL
COc1cc(Nc2ncnc(-n3ccnc3NCc3ccccc3)n2)cc(OC)c1OC | > 4.5 µg/mL
O=c1[nH]c2ccccc2n1-c1ncnc(Nc2ccc(C(F)(F)F)cc2)n1 | > 4.5 µg/mL
COc1cc(Nc2ncnc(-c3cccnc3NCC3CCCCC3)n2)cc(OC)c1OC | > 4.5 µg/mL
O=C(O)Cc1cccc(Nc2ncnc(Nc3ccc(Cl)cc3F)n2)c1 | 0.4 to 2.4 µg/mL (≈ 1.07 to 6.42 µM)
COC(=O)c1cc(OC)c(OC)cc1Nc1ncnc(-n2c(N)nc3ccccc32)n1 | > 4.5 µg/mL
COC(=O)c1ccc(-c2cc(Nc3ncnc(NCCNC(C)=O)n3)[nH]n2)cc1 | > 4.5 µg/mL
CN1CCN(Cc2cccc(Nc3ncnc(Nc4cccc5ccccc45)n3)c2)CC1 | > 4.5 µg/mL
COc1cc(Nc2ncnc(Nc3nc4ccccc4s3)n2)cc(OC)c1OC | > 4.5 µg/mL
Nc1nc2ccccc2n1-c1ncnc(Nc2ccc(-c3cnco3)cc2)n1 | 0.4 to 2.4 µg/mL (≈ 1.08 to 6.48 µM)
COc1ccc(Nc2ncnc(NCc3cccc(Cl)c3)n2)cc1OC | 0.4 to 2.4 µg/mL (≈ 1.08 to 6.45 µM)
COc1cc(Nc2ncnc(-n3c(=O)[nH]c4ccccc43)n2)cc(OC)c1OC | 3.5 to 4.5 µg/mL (≈ 8.87 to 11.4 µM)
Cc1cccc(Nc2ncnc(Nc3ccc4c(cnn4Cc4ccccc4)c3)n2)c1 | < 0.4 µg/mL
Brc1ccc(Nc2ncnc(-n3cccc3)n2)cc1 | > 4.5 µg/mL
COc1cc(Nc2ncnc(Nc3cccc4ncccc34)n2)cc(OC)c1OC | 2.4 to 3.5 µg/mL (≈ 5.93 to 8.65 µM)
COc1cc(Nc2ncnc(Nc3nc4ccc(F)cc4s3)n2)cc(OC)c1OC | > 4.5 µg/mL
COc1cc(Nc2ncnc(N(C)c3cccc(Cl)c3)n2)cc2ccccc12 | < 0.4 µg/mL

Compound | IC50
O=C(O)CCNC(=O)c1ccc(Nc2ncnc(Nc3cc(-c4ccco4)[nH]n3)n2)cc1 | 0.4 to 2.4 µg/mL (≈ 0.921 to 5.52 µM)
COc1cc(Nc2ncnc(-n3c(NCc4nc5ccccc5[nH]4)nc4ccccc43)n2)cc(OC)c1OC | > 4.5 µg/mL
COc1cc(Nc2ncnc(Cl)n2)cc(OC)c1OC | > 4.5 µg/mL
COc1cc(Nc2ncnc(-c3cccc(Cl)c3)n2)cc(OC)c1OC | > 4.5 µg/mL
c1ccc(CNc2nc3ccccc3n2-c2ncnc(Nc3cccc(Cn4ccnn4)c3)n2)nc1 | 2.4 to 3.5 µg/mL (≈ 5.05 to 7.36 µM)
Cc1ccc2c(c1)CCCN2c1ncnc(Nc2cccc(Cc3nnn[nH]3)c2)n1 | < 0.4 µg/mL
NC(=O)c1cccc(Nc2ncnc(-c3ccccc3)n2)c1 | > 4.5 µg/mL
CC(C)Nc1ncccc1-c1ncnc(Nc2cccc(Cn3ccnn3)c2)n1 | 2.4 to 3.5 µg/mL (≈ 6.19 to 9.03 µM)
COc1cc(Nc2ncnc(-n3cc(CCO)c4ccccc43)n2)cc(OC)c1OC | > 4.5 µg/mL
Nc1nc2ccccc2n1-c1ncnc(Nc2cccc(Cn3ccnn3)c2)n1 | 2.4 to 3.5 µg/mL (≈ 6.24 to 9.1 µM)
COc1cc(Nc2ncnc(NC(=O)Cc3ccccc3)n2)cc(OC)c1OC | 0.4 to 2.4 µg/mL (≈ 1.01 to 6.07 µM)
O=c1[nH]c2ccccc2n1-c1ncnc(Nc2ccncc2)n1 | > 4.5 µg/mL
N#Cc1ccc(Nc2ncnc(-n3c(=O)[nH]c4ccccc43)n2)cc1 | > 4.5 µg/mL
COc1cc(Nc2ncnc(Nc3cc(OC)c(OC)c(OC)c3)n2)cc(OC)c1 | > 4.5 µg/mL
COc1cc(Nc2ncnc(N[C@@H](CO)c3ccccc3)n2)cc(OC)c1OC | > 4.5 µg/mL
COc1cc(Nc2ncnc(-c3cccc4ccccc34)n2)cc(OC)c1OC | > 4.5 µg/mL
Cc1cc(Br)ccc1Nc1ncnc(-n2cccc2)n1 | > 4.5 µg/mL
CN(c1cccc(Cl)c1)c1ncnc(Nc2cccc(Cc3nnn[nH]3)c2)n1 | < 0.4 µg/mL
COc1cc(Nc2ncnc(-c3cccnc3Cl)n2)cc(OC)c1OCCN1CCOCC1 | > 4.5 µg/mL
COc1cc(Nc2ncnc(-c3ccsc3)n2)cc(OC)c1OC | > 4.5 µg/mL
CN(c1cccc(Cl)c1)c1ncnc(Nc2cc(Cl)c(Cl)c(Cl)c2)n1 | > 4.5 µg/mL
CC(C)(C)OC(=O)NCc1cccc(Nc2ncnc(Nc3cc(-c4ccccc4)n[nH]3)n2)c1 | 2.4 to 3.5 µg/mL (≈ 5.23 to 7.63 µM)
COc1cc(Nc2ncnc(-n3c(NCc4ccc(C)cc4C)nc4ccccc43)n2)cc(OC)c1OC | > 4.5 µg/mL and 2.4 to 3.5 µg/mL
O=c1[nH]c2ccccc2n1-c1ncnc(Nc2ccccc2Cl)n1 | 0.4 to 2.4 µg/mL (≈ 1.18 to 7.08 µM)
COc1cc(Nc2ncnc(Nc3ccc(Br)cc3)n2)cc(OC)c1OC | 0.4 to 2.4 µg/mL (≈ 0.925 to 5.55 µM)

Compound | IC50
COc1cc(Nc2ncnc(-c3cccnc3Nc3cccc(C#N)c3)n2)cc(OC)c1OC | > 4.5 µg/mL
COC(=O)c1cccc(Nc2ncnc(-n3c(NCc4ccc(OC)cc4)nc4ccccc43)n2)c1 | > 4.5 µg/mL
COc1cc(Nc2ncnc(-n3ccc4cc(OCc5ccccc5)ccc43)n2)cc(OC)c1OC | > 4.5 µg/mL
c1csc(-c2ncnc(Nc3ccc4c(c3)OCO4)n2)c1 | > 4.5 µg/mL
Clc1cccc(Nc2ncnc(-c3cccs3)n2)c1 | > 4.5 µg/mL
COc1cc(Nc2ncnc(Nc3ccc(N4CCCCC4)cc3)n2)cc(OC)c1OC | 0.4 to 2.4 µg/mL (≈ 0.916 to 5.5 µM)
COc1cc(Nc2ncnc(Nc3cccc(Cl)c3)n2)cc(OC)c1 | < 0.4 µg/mL
COc1ccc(Nc2ncnc(Nc3cccc(Br)c3)n2)cc1OC | < 0.4 µg/mL
O=c1[nH]c2ccccc2n1-c1ncnc(Nc2cccc3ncccc23)n1 | > 4.5 µg/mL
COc1cc(Nc2ncnc(-c3c(O)[nH]c4ccccc34)n2)cc(OC)c1OC | > 4.5 µg/mL
O=c1[nH]c2ccccc2n1-c1ncnc(Nc2cccc(NS(=O)(=O)c3ccc([N+](=O)[O-])cc3)c2)n1 | 0.4 to 2.4 µg/mL (≈ 0.793 to 4.76 µM)
COc1cc(Nc2ncnc(-n3ccc4ccccc43)n2)cc(OC)c1OC | > 4.5 µg/mL
COc1cc(Nc2ncnc(-c3cccnc3NC3CCc4ccccc43)n2)cc(OC)c1OC (stereo not drawn) | 2.4 to 3.5 µg/mL (≈ 5.1 to 7.44 µM)
C=CCNC(=O)c1ccc(-c2cc(Nc3ncnc(Nc4cc(OC)c(OC)c(OC)c4)n3)[nH]n2)cc1 | > 4.5 µg/mL
COc1cc(Nc2ncnc(-n3c(Nc4ccccc4C)nc4ccccc43)n2)cc(OC)c1OC | 3.5 to 4.5 µg/mL (≈ 7.24 to 9.31 µM)
CC(C)(C)c1cc(Nc2ncnc(Nc3cccc(CO)c3)n2)[nH]n1 | 0.4 to 2.4 µg/mL (≈ 1.18 to 7.07 µM)
COc1ccc(Nc2ncnc(-n3c(N)nc4ccccc43)n2)cc1OCCN1CCOCC1 | > 4.5 µg/mL
COc1ccc(CNc2ncnc(Nc3cc(-c4ccco4)n[nH]3)n2)cc1 | > 4.5 µg/mL
COc1ccc(Nc2ncnc(-n3cccc3)n2)c(OC)c1 | > 4.5 µg/mL
Nc1nc2ccccc2n1-c1ncnc(Nc2ccccn2)n1 | > 4.5 µg/mL
O=c1[nH]c2ccccc2n1-c1ncnc(Nc2ccc3[nH]ncc3c2)n1 | > 4.5 µg/mL
COc1ccc(Nc2nc3ccccc3n2-c2ncnc(Nc3cc(OC)c(OC)c(OC)c3)n2)cc1OC | > 4.5 µg/mL
COc1ccc(Nc2ncnc(N(C)c3ccccc3Cl)n2)cc1OC | < 0.4 µg/mL

From the Kinase Knowledgebase extract (Sharma et al. 2016)
